Read-outs that look alike come from different tables or passages of the source.
Tests used:
[1] = molecular target: T1, human A1 adenosine receptor (Homo sapiens, UniProt P30542); conditions: A1 adenosine receptor agonist; cited from earlier work
T1 sequence (P30542 1-326): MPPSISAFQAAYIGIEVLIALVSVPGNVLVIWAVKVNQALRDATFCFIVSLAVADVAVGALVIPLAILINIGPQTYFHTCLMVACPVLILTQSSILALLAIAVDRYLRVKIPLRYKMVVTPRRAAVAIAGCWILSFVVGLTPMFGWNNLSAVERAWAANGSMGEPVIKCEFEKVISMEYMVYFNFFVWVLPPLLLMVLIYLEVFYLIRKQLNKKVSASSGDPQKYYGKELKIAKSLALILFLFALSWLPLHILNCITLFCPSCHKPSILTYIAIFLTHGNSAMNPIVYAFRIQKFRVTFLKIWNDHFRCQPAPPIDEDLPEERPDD

[2] = molecular target: T2, human A2b receptor subtype (Homo sapiens, UniProt P29275); experiment: Adenosine 2b receptor subtype competition radioligand binding, [3H]DPCPX, HEK293 membranes
T2 construct: expressed in transfected cells; host or cells: HEK293
T2 sequence (P29275 1-332): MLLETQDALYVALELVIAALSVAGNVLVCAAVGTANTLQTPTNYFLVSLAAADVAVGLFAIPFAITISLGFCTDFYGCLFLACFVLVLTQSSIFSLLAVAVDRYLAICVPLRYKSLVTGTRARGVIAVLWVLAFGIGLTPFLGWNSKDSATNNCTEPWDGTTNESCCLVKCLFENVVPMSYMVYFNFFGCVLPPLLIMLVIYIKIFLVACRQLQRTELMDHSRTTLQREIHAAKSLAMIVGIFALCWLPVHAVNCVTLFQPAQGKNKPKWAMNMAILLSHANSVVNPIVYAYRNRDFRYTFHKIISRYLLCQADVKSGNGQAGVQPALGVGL

[3] = molecular target: T3, human A3 receptor subtype (Homo sapiens, UniProt P0DMS8); experiment: Adenosine 3 receptor competition radioligand binding, [125I]AB-MECA, HEK293 membranes
T3 sequence (P0DMS8 1-318): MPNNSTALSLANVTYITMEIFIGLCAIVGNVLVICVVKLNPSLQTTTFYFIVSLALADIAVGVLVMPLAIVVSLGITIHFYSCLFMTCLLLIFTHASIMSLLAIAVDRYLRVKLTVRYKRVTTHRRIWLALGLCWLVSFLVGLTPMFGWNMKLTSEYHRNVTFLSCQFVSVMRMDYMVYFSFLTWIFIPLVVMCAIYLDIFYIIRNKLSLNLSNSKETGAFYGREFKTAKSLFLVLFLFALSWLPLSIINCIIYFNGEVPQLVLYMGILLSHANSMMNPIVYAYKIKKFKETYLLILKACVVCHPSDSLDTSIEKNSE

[4] = molecular target: T4, human A1 receptor subtype (Homo sapiens, UniProt P30542)
T4 sequence (P30542 1-326): T1 sequence (P30542 1-326)

[5] = molecular target: human A2a receptor subtype (Homo sapiens, UniProt P29274); experiment: Adenosine 2a receptor subtype competition radioligand binding, [3H]CGS-21680, HEK293 membranes
Chain of human A2a receptor subtype (P29274 whole entry): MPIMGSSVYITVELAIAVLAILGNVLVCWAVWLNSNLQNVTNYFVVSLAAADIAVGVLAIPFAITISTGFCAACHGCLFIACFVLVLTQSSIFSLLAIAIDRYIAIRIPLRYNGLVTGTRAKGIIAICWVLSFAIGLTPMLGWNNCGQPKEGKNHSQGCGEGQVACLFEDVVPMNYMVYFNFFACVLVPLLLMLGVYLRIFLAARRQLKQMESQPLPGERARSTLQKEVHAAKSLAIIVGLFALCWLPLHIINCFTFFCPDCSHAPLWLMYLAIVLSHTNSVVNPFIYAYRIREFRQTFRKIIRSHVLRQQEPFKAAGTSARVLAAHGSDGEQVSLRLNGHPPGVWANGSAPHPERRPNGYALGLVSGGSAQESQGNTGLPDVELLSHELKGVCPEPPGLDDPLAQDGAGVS

[6] = molecular target: T4, human A1 receptor subtype; experiment: biochemical
[7] = Water solubility (footnote to Table 13); assay type: physicochemical
[8] = Table 13, read-out: Binding Ki (nm) A2b
[9] = Table 13, given as %, footnote 8: % activity @ 10 μM

CC(Cc1ccccc1)Nc1ncnc2c1ncn2[C@@H]1O[C@H](CO)[C@@H](O)[C@H]1O (single isomer, unassigned; (-)) [R-PIA, (−)-N6-(2-phenylisopropyl)-adenosine]
reported affinity [1]: approximately 50 nM

Cc1[nH]c2nc(-c3ccccc3)nc(NC3CCC(O)CC3)c2c1C (stereo not shown) [CDS-046142]
Ki [2, 8]: 138 nM | Ki [3]: 21.5 nM

Cc1[nH]c2nc(-c3ccccc3)nc(NC3CCC(NS(C)(=O)=O)CC3)c2c1C (stereo not shown) [CDS-056176]
Ki ([4]; read-out: A1 Binding Ki, membranes from yeast cells transformed with human A1 receptor, [3H]DPCPX 1.0 nM): > 10000 nM

Cc1[nH]c2nc(-c3cccs3)nc(NC3CCC(O)CC3)c2c1C (stereo not drawn) [CDS-090890, 4-(4-trans-hydroxycyclohexyl)amino-5,6-dimethyl-2-(2-thienyl)-7H-pyrrolo[2,3d]pyrimidin-4-amine]
A2b binding, % activity [2, 9]: 30% | Ki [5]: 731 nM | Ki [3]: 9.9 nM

CNC(=O)NCCCNc1nc(-c2ccccc2)nc2[nH]c(C)c(C)c12 [CDS-121180]
A2a binding, % activity [5, 9]: 76%

Cc1[nH]c2nc(-c3ccccc3)nc(NCCCNC(=O)CCN)c2c1C [CDS-121181]
Ki [2, 8]: 3400 nM | Ki [6]: 75000 nM

Cc1[nH]c2nc(-c3ccccc3)nc(NCCNC(=O)C3(N)CC3)c2c1C [CDS-123264]
water solubility [7]: ^3water soluble; | A1 binding, % activity [4, 9]: 30%

CC(=O)NCCNc1nc(-c2ccccc2)nc2[nH]c(COc3ccccc3)cc12 [CDS-129851, 4-(2-acetylaminoethyl)amino-6-phenoxymethyl-2-phenyl-7H-pyrrolo[2,3d]pyrimidine]
Ki [3]: 14.6 nM | Ki [6]: 41.7 nM

O[C@H]1CC[C@H](Nc2nc(-c3ccncc3)nc3[nH]ccc23)CC1 [CDS-131921, 4-(trans-4-hydroxycyclohexyl)amino-2-(4-pyridyl)-7H-pyrrolo[2,3d]pyrimidine]
A3 binding, % activity @ 10 μM ([3]; Table 13, 10 μM): 54%^8

CC(=O)NCCNc1nc(-c2ccccc2)nc2[nH]c(Cn3ccccc3=O)cc12 [CDS-143988, 4-(2-acetylaminoethyl)amino-6-(N-pyridin-2-one)methyl-2-phenyl-7H-pyrrolo[2,3d]pyrimidine]
Ki ([2]; Table 14, read-out: Binding Data Ki (nM) A2B): 47 nM

— patent US6800633B2, “Pyrrolo[2,3d]pyrimidine compositions and their use” (OSI Pharmaceuticals, Inc., priority 1998, dated 2004)
